From patent US5541174A, “Analgesic method” (priority 1995, dated 1996) come the findings set out here.

The test system of assay [1] is adjuvant-induced arthritic pain in rats. In words: Adjuvant-induced arthritic pain. Type of assay: in vivo, male Sprague-Dawley rats. From the text: 2. Adjuvant-induced arthritic pain as described in:
S. KUZNA, et al., Measurement of Arthritic Pain and Effects of Analgesics in the Adjuvant-Treated Rat, Chem. Pharm. Bull. 23, 1184-1191 (1975);
C. A. WINTER, et al., Analgesic Activity of Diflunisal in Rats with Hyperalygesia Induced by Freud's Adjuvant, J. Pharmacol. Exp. Ther. 211, 678-685 (1979; and
M. E. ROSENTHALE, et al., Adjuvant Arthritis:Immuno-Pathological and Hyperalgesic Features, Fed. Proced. 41, 2577-2582 (1982),
incorporated by reference herein.
Groups of 5-6 male Sprague-Dawley rats (Taisho Pharmaceutical Co. Research Center) weighing 140 to 160 g at the time of Mycobacterium butyricum (adjuvant, Difco Laboratories, Detroit, Mich.) injection were used to study each compound. Rats were injected intradermally at the base of the tail with 0.1 ml of a parafin oil suspension of 0.5 mg of heat-killed mycobacterium. Fifteen to 19 days later, drugs were administered orally or subcutaneously in 0.5 ml of vehicle per 100 g of body weight to rats showing the nociceptive reaction, vocalization following a gentle flexion of the tarsal-tibial joint of the inflamed hind-paw. Vocalization responses were measured every hour for 5 hours. […] The ED50 value and 95% confidence limits were calculated from the positive rate for non-treated controls, vehicle-treated adjuvant arthritic rats, by the method of Litchfield and Wilcoxin.
All drugs were suspended with 5% gum arabic in saline solution or wetted with enough propylene glycol to give a final concentration of 4% propylene glycol and the wetted solid suspended in 1.4% polyvinyl alcohol in saline.

The test system of assay [2] is acetic acid induced writhing in mice. In words: Acetic acid-induced writhing test. Format: in vivo, ICR male mice. The following applies: for activity versus other copper complexes and parent ligand: Table VI. As to the method:
1. Acetic acid-induced writhing test as described in Koster et al., "Acetic Acid for Analgesic Screening", Fed. Proc. 18, 412 (1959), incorporated by reference herein; and
Groups of 10 ICR male mice (Taisho Pharmaceutical Co. Research Center) were used to study each dose of every compound. Ligands or complexes were administered orally or subcutaneously in 0.1 ml of vehicle per 10 g of body weight 30 minutes before the intrapertioneal injection of 0.1 ml of 0.7% acetic acid solution per 10 g of body weight. Number of writhes were counted for each mouse during a period of 10 to 20 min after acetic acid injection. Inhibitory percent was calculated by comparison with the number of writhes in the non-treated control, vehicle-treated, and acetic acid-injected group. The ED50 value and 95% confidence limits were calculated from the inhibitory percent by the method of Litchfield and Wilcoxon.
In general terms: In writhing tests, fewer writhes than in controls are read as antinociception.

Setting [3] is: oral, 5% gum arabic, 0.20 mmol/kg.
[4] abbreviates: oral, 5% gum arabic, 0.40 mmol/kg.
Where [5] appears, read: oral, 5% gum arabic, 0.42 mmol/kg.
The mark [6] stands for this setting: oral, 5% gum arabic, 0.33 mmol/kg.

What is called ED50 is the dose that gives a 50% effect, or the effect in half of the subjects. The % Inhibition is the drop in the measured response relative to a control, in per cent. Turning to `CC(C)c1cc(C(=O)[O-])c(O)c(C(C)C)c1.CC(C)c1cc(C(=O)[O-])c(O)c(C(C)C)c1.[Cu+2]` [Cu(II)(3,5-dips)2], the “analgesic effectiveness versus parent ligand” value in assay [1] (oral, 5% gum arabic) is given as “essentially equipotent with its ligand”; in assay [1] (oral, PG-PVA) it was “more effective than its parent ligand”; in assay [2] (oral, 5% gum arabic in saline) it was “slightly less effective than its parent ligand”; in assay [2] (oral, PG-PVA), “only as effective as its parent ligand”. Moreover, the ED50 in assay [1] (oral, 5% gum arabic in saline) is listed as 0.43 mmol/kg; in assay [1] (oral, PG-PVA in saline) it was above 0.40 mmol/kg; in assay [1] (s.c., PG-PVA in saline) it was 0.12 mmol/kg; in assay [2] (oral, 5% gum arabic in saline) it was 0.40 mmol/kg; in assay [2] (oral, PG-PVA in saline), 0.43 mmol/kg; in assay [2] (s.c., PG-PVA in saline), 0.20 mmol/kg. Besides, the “% Inhibition” value in assay [1] (oral, 5% gum arabic, 0.10 mmol/kg) came to 7%; in assay [1] (setting [3]), 20%; in assay [1] (setting [4]) it was 47%; in assay [1] (oral, PG-PVA, 0.40 mmol/kg), 40%; in assay [1] (s.c., PG-PVA, 0.05 mmol/kg) it was 23%; in assay [1] (s.c., PG-PVA, 0.10 mmol/kg), 37%. The “% Inhibition” value in assay [1] (s.c., PG-PVA, 0.20 mmol/kg) came to 70%; in assay [2] (setting [3]) it was 35%; in assay [2] (setting [4]), 48%; in assay [2] (oral, 5% gum arabic, 0.80 mmol/kg) it was 66%; in assay [2] (oral, PG-PVA, 0.20 mmol/kg), 26%; in assay [2] (oral, PG-PVA, 0.40 mmol/kg), 56%. Besides, the “% Inhibition” value in assay [2] (oral, PG-PVA, 0.79 mmol/kg) was 62%; in assay [2] (s.c., PG-PVA, 0.10 mmol/kg), 27%; in assay [2] (s.c., PG-PVA, 0.20 mmol/kg), 45%; in assay [2] (s.c., PG-PVA, 0.40 mmol/kg), 74%.

As to `C[C@H](N)C(=O)[O-].C[C@H](N)C(=O)[O-].[Cu+2]` [Cu(II)(L-alaninate)2], the ED50 in assay [1] (oral, 5% gum arabic in saline) was above 0.42 mmol/kg; in assay [2] (oral, 5% gum arabic in saline), 0.92 mmol/kg. In addition, the “% Inhibition” value amounted to 0% in assay [1] (setting [5]); 22% in assay [2] (setting [5]); 48% in assay [2] (oral, 5% gum arabic, 0.83 mmol/kg); 71% in assay [2] (oral, 5% gum arabic, 1.67 mmol/kg). The “activity versus other copper complexes and parent ligand” value in assay [2] is on record as “less active than the other copper complexes”.

Take `N[C@@H](CSSC[C@H](N)C(=O)[O-])C(=O)[O-].[Cu+2]` [Cu(II)(L-cystinate)]: the ED50 in assay [1] (oral, 5% gum arabic in saline) is listed as above 0.33 mmol/kg; in assay [2] (oral, 5% gum arabic in saline), above 0.33 mmol/kg. Further, the “% Inhibition” value was 0% in assay [1] (setting [6]) and 35% in assay [2] (setting [6]). Moreover, in assay [2], the “activity versus other copper complexes and parent ligand” value was “less active than the other copper complexes”.
